Reference: the supplement of paper PMC10307832

Assays:
Assay in all cases: relative viability (nuclei count vs DMSO), 5 days (fraction); higher = more cells survive
ABC-1 = test system: ABC-1
How it was run: (§1)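 Each reported value is a median over duplicate plates. It expresses relative viability: treated-well nuclei count divided by vehicle-well nuclei count. Lung cancer cell lines in 1536-well plates were dosed by pin tool a day after seeding, alone with one drug or with a fixed anchor-drug dose plus five library-drug doses (not always all listed) in √10 steps, and nuclei were counted after 5 days.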

CAL-12T = test system: CAL-12T
How it was run: as §1

COR-L23 = test system: COR-L23
How it was run: as §1

EKVX = test system: EKVX
How it was run: as §1

H3255 = test system: H3255
How it was run: as §1

HCC-15 = test system: HCC-15
How it was run: as §1

HCC-827 = test system: HCC-827
How it was run: as §1

LK-2 = test system: LK-2
How it was run: as §1

NCI-H1355 = test system: NCI-H1355
How it was run: as §1

NCI-H1437 = test system: NCI-H1437
How it was run: as §1

NCI-H1563 = test system: NCI-H1563
How it was run: as §1

NCI-H1650 = test system: NCI-H1650
How it was run: as §1

NCI-H1734 = test system: NCI-H1734
How it was run: as §1

NCI-H2228 = test system: NCI-H2228
How it was run: as §1

NCI-H2342 = test system: NCI-H2342
How it was run: as §1

NCI-H2405 = test system: NCI-H2405
How it was run: as §1

NCI-H322M = test system: NCI-H322M
How it was run: as §1

NCI-H520 = test system: NCI-H520
How it was run: as §1

NCI-H661 = test system: NCI-H661
How it was run: as §1

PC-14 = test system: PC-14
How it was run: as §1

PC-3 [JPC-3] = test system: PC-3 [JPC-3]
How it was run: as §1

RERF-LC-KJ = test system: RERF-LC-KJ
How it was run: as §1

SW 1573 = test system: SW 1573
How it was run: as §1

Oc1nc(-c2ccc(C(F)(F)F)cc2)nc2c1CSCC2 [XAV939] + COc1cccc2cc(-c3nc([C@H]4CC[C@H](C(=O)O)CC4)n4ncnc(N)c34)[nH]c12 [OSI-027] (partner 0.5 µM) showed a relative viability (ABC-1; first compound 0.08 µM) of 0.44, a relative viability (ABC-1; first compound 0.253 µM) of 0.532 and a relative viability (ABC-1; first compound 0.8 µM) of 0.374. It also gave a relative viability (ABC-1; first compound 2.53 µM) of 0.28, a relative viability (CAL-12T; first compound 0.08 µM) of 0.635 and a relative viability (CAL-12T; first compound 0.253 µM) of 0.363. The relative viability (CAL-12T; first compound 0.8 µM) was 0.441, the relative viability (CAL-12T; first compound 2.53 µM) was 0.335 and the relative viability (COR-L23; first compound 0.08 µM) was 0.824. For the same molecule, the relative viability (COR-L23; first compound 0.253 µM) was 0.765, the relative viability (COR-L23; first compound 0.8 µM) was 0.77 and the relative viability (COR-L23; first compound 2.53 µM) was 0.618. It also gave a relative viability (EKVX; first compound 0.08 µM) of 0.719, a relative viability (EKVX; first compound 0.253 µM) of 0.686 and a relative viability (EKVX; first compound 0.8 µM) of 0.593. It also gave a relative viability (EKVX; first compound 2.53 µM) of 0.532, a relative viability (H3255; first compound 0.08 µM) of 0.555 and a relative viability (H3255; first compound 0.253 µM) of 0.584. For the same molecule, the relative viability (H3255; first compound 0.8 µM) was 0.6, the relative viability (H3255; first compound 2.53 µM) was 0.384 and the relative viability (HCC-15; first compound 0.08 µM) was 0.797. For the same molecule, the relative viability (HCC-15; first compound 0.253 µM) was 0.619, the relative viability (HCC-15; first compound 0.8 µM) was 0.738 and the relative viability (HCC-15; first compound 2.53 µM) was 0.655. It also gave a relative viability (HCC-827; first compound 0.08 µM) of 0.817, a relative viability (HCC-827; first compound 0.253 µM) of 0.744 and a relative viability (HCC-827; first compound 0.8 µM) of 0.826. The relative viability (HCC-827; first compound 2.53 µM) was 0.711, the relative viability (LK-2; first compound 0.08 µM) was 0.168 and the relative viability (LK-2; first compound 0.253 µM) was 0.232. The relative viability (LK-2; first compound 0.8 µM) was 0.188, the relative viability (LK-2; first compound 2.53 µM) was 0.206 and the relative viability (NCI-H1355; first compound 0.08 µM) was 0.396. The relative viability (NCI-H1355; first compound 0.253 µM) was 0.353, the relative viability (NCI-H1355; first compound 0.8 µM) was 0.368 and the relative viability (NCI-H1355; first compound 2.53 µM) was 0.274. For the same molecule, the relative viability (NCI-H1437; first compound 0.08 µM) was 1.03, the relative viability (NCI-H1437; first compound 0.253 µM) was 0.877 and the relative viability (NCI-H1437; first compound 0.8 µM) was 0.89. The relative viability (NCI-H1437; first compound 2.53 µM) was 0.783, the relative viability (NCI-H1563; first compound 0.08 µM) was 0.844 and the relative viability (NCI-H1563; first compound 0.253 µM) was 0.769. For the same molecule, the relative viability (NCI-H1563; first compound 0.8 µM) was 0.708, the relative viability (NCI-H1563; first compound 2.53 µM) was 0.614 and the relative viability (NCI-H1650; first compound 0.08 µM) was 0.817. For the same molecule, the relative viability (NCI-H1650; first compound 0.253 µM) was 0.6, the relative viability (NCI-H1650; first compound 0.8 µM) was 0.742 and the relative viability (NCI-H1650; first compound 2.53 µM) was 0.443. The relative viability (NCI-H1734; first compound 0.08 µM) was 0.632, the relative viability (NCI-H1734; first compound 0.253 µM) was 0.551 and the relative viability (NCI-H1734; first compound 0.8 µM) was 0.575. For the same molecule, the relative viability (NCI-H1734; first compound 2.53 µM) was 0.51, the relative viability (NCI-H2228; first compound 0.08 µM) was 0.704 and the relative viability (NCI-H2228; first compound 0.253 µM) was 0.467. For the same molecule, the relative viability (NCI-H2228; first compound 0.8 µM) was 0.479, the relative viability (NCI-H2228; first compound 2.53 µM) was 0.546 and the relative viability (NCI-H2342; first compound 0.08 µM) was 0.596. For the same molecule, the relative viability (NCI-H2342; first compound 0.253 µM) was 0.481, the relative viability (NCI-H2342; first compound 0.8 µM) was 0.531 and the relative viability (NCI-H2342; first compound 2.53 µM) was 0.464. It also gave a relative viability (NCI-H2405; first compound 0.08 µM) of 0.605, a relative viability (NCI-H2405; first compound 0.253 µM) of 0.586 and a relative viability (NCI-H2405; first compound 0.8 µM) of 0.611. The relative viability (NCI-H2405; first compound 2.53 µM) was 0.598, the relative viability (NCI-H322M; first compound 0.08 µM) was 0.615 and the relative viability (NCI-H322M; first compound 0.253 µM) was 0.594. For the same molecule, the relative viability (NCI-H322M; first compound 0.8 µM) was 0.504, the relative viability (NCI-H322M; first compound 2.53 µM) was 0.406 and the relative viability (NCI-H520; first compound 0.08 µM) was 0.262. For the same molecule, the relative viability (NCI-H520; first compound 0.253 µM) was 0.225, the relative viability (NCI-H520; first compound 0.8 µM) was 0.224 and the relative viability (NCI-H520; first compound 2.53 µM) was 0.225. It also gave a relative viability (NCI-H661; first compound 0.08 µM) of 0.701, a relative viability (NCI-H661; first compound 0.253 µM) of 0.719 and a relative viability (NCI-H661; first compound 0.8 µM) of 0.696. It also gave a relative viability (NCI-H661; first compound 2.53 µM) of 0.583, a relative viability (PC-14; first compound 0.08 µM) of 1.09 and a relative viability (PC-14; first compound 0.253 µM) of 0.772. For the same molecule, the relative viability (PC-14; first compound 0.8 µM) was 0.725, the relative viability (PC-14; first compound 2.53 µM) was 0.639 and the relative viability (PC-3 [JPC-3]; first compound 0.08 µM) was 0.756. It also gave a relative viability (PC-3 [JPC-3]; first compound 0.253 µM) of 0.611, a relative viability (PC-3 [JPC-3]; first compound 0.8 µM) of 0.777 and a relative viability (PC-3 [JPC-3]; first compound 2.53 µM) of 0.599. For the same molecule, the relative viability (RERF-LC-KJ; first compound 0.08 µM) was 0.607, the relative viability (RERF-LC-KJ; first compound 0.253 µM) was 0.533 and the relative viability (RERF-LC-KJ; first compound 0.8 µM) was 0.464. For the same molecule, the relative viability (RERF-LC-KJ; first compound 2.53 µM) was 0.526, the relative viability (SW 1573; first compound 0.08 µM) was 0.602 and the relative viability (SW 1573; first compound 0.253 µM) was 0.556. The relative viability (SW 1573; first compound 0.8 µM) was 0.542 and the relative viability (SW 1573; first compound 2.53 µM) was 0.494.
